Source: patent publication US20220226260A1, “APPLICATION OF HONOKIOL AND MAGNOLOL IN PREPARATION OF MCR-1 ENZYME INHIBITOR” (priority 2019, published 2022)
Where two headings read alike, the source gives them in different places.

Experiments:
[1] = test system: MCR-1 engineering bacteria E. coli BL21(DE3) (pET28a-mcr-1); assay: Chessboard MIC test, MCR-1 engineering bacteria; type: cell-based, Escherichia coli; details: for MIC: Escherichia coli, read-out: MIC alone; for synergistic effect with polymyxin: combination with polymyxin, strain expressing MCR-1; for FIC: combined with polymyxin B
Method: (§1) The antibacterial activities of honokiol, magnolol, polymyxin and their combination against MCR-1 producing Escherichia coli (also referred to as MCR-1 positive Escherichia coli) and Klebsiella pneumoniae are tested by chessboard method in 96-well sterile microplates, the MIC values are determined, and the fractional inhibitory concentration (FIC) indexes are calculated. Specifically, FIC=MIC (polymyxin combined)/MIC (polymyxin alone)+MIC (honokiol/magnolol combined)/MIC (honokiol/magnolol alone).

[2] = test system: E. coli BL21(DE3) (pET28a); assay: Chessboard MIC test, engineering strain not expressing MCR-1; type: cell-based, Escherichia coli; details: for MIC: Escherichia coli, read-out: MIC alone; for synergistic effect with polymyxin: combination with polymyxin, strain that does not express MCR-1; for FIC: combined with polymyxin B
[3] = test system: MCR-1 positive Escherichia coli (E. coli DZ2-12R); assay: Chessboard MIC test, MCR-1 positive E. coli; type: cell-based; details: for MIC: Escherichia coli; for antibacterial effect alone: summary for the strains of Tables 1 and 2; for reduction of the MIC value of polymyxin: combination with polymyxin, MCR-1 positive Escherichia coli
Method: as §1

[4] = test system: MCR-1 positive Escherichia coli isolate; assay: Time-kill curve test; type: cell-based; details: 1×10^5 CFUs/mL
Method: An overnight culture of MCR-1 positive Escherichia coli isolate is taken and adjusted to 1×10^7 colony forming units per milliliter (CFUs/mL) for use. Sterile test tubes are taken and divided into 4 groups (including blank control group, 2 μg/mL polymyxin group B group, 16 μg/mL honokiol or 32 μg/mL magnolol group, and 16 μg/mL honokiol or 32 μg/mL magnolol combined with 2 μg/mL polymyxin B group), each group is marked for 1, 3, 5 and 7 hours. 1 mL of autoclaved Lysogeny broth (LB) medium is added into each of the test tubes, and then 10 microliters (μL) of adjusted bacterial solution are added into each of the test tubes so that the concentration of bacterial solution in each of the test tubes is 1×10^5 CFUs/mL. Among them, 2 μg/mL polymyxin group B group, 16 μg/mL honokiol or 32 μg/mL magnolol group, and 16 μg/mL honokiol or 32 μg/mL magnolol combined with 2 μg/mL polymyxin B group are added with the corresponding amount of antibiotics and inhibitors respectively. Immediately after mixing, the bacterial solution of the antibiotic-free control group is coated and counted as the CFU at 0 H. After that, the bacterial solution in the corresponding test tube is taken every 1, 3, 5 and 7 hours, and the plate is coated for counting, and the time-kill curves are drawn, as shown in FIG. 1 and FIG. 2.

[5] = test system: MCR-1 positive Klebsiella pneumoniae; assay: Colony colonization experiment of mouse thigh muscle infection; type: in vivo; details: BALB/C mice, subcutaneous, every 8 hours for three times, 36 hours
Method: After BALB/C mice (female, about 20 […] (g)) are restrained, MCR-1 positive Klebsiella pneumoniae suspension (2×10^7 CFUs) is injected through the inner thigh to establish a mouse thigh muscle infection model.
After intramuscular injection of MCR-1 positive Klebsiella pneumoniae into the inner thigh of mice, 5 […] (mg/kg) (50 μL) of polymyxin B dissolved in sterile ultra-pure water (dd H2O), 50 mg/kg (50 μL) honokiol or magnolol dissolved in dimethyl sulfoxide (DMSO) solution, and 50 mg/kg of honokiol or magnolol combined with polymyxin B (5 mg/kg) are injected subcutaneously, while the positive control group is subcutaneously injected with 50 μL DMSO blank solvent. All groups of mice are administered subcutaneously every 8 hours for three times. After 36 hours of administration, the mice are sacrificed, and the thigh muscles are weighed, homogenized, diluted and counted.

[6] = test system: MCR-1 positive Klebsiella pneumoniae (K. pneumoniae ZJ02); assay: Chessboard MIC test, MCR-1 positive K. pneumoniae; type: cell-based; details: for MIC: Klebsiella pneumoniae; for reduction of the MIC value of polymyxin: combination with polymyxin, MCR-1 positive Klebsiella pneumoniae
Method: as §1

[7] = E. coli BL21(DE3) (pET28a-mcr-1)
[8] = combined with polymyxin B, E. coli DZ2-12R
[9] = 50 mg/kg combined with polymyxin B (5 mg/kg)
[10] = alone (honokiol or magnolol 50 mg/kg, polymyxin B 5 mg/kg)
[11] = combined with polymyxin B, K. pneumoniae ZJ02

For `C=CCc1ccc(O)c(-c2ccc(O)c(CC=C)c2)c1` [Honokiol, honokiol], the MIC [1] was > 512 µg/mL, the “synergistic effect with polymyxin” value [1] was “obvious synergistic effect” and the FIC [1, 7] was 0.125. For the same compound, the MIC [2] was > 512 µg/mL, the “synergistic effect with polymyxin” value [2] was “does not have any synergistic effect” and the FIC ([2]; E. coli BL21(DE3) (pET28a)) was 0.5625. The MIC ([3]; read-out: MIC alone) was > 512 µg/mL, the MIC ([3]; combined with polymyxin B, E. coli DZ2-12R, read-out: MIC co-application (honokiol/magnolol)) was 32 µg/mL and the antibacterial effect alone ([3]; alone) was “no antibacterial effect”. For the same compound, the “reduction of the MIC value of polymyxin” value [3] was 8 fold, the FIC [3, 8] was 0.1875 and the “time to completely kill MCR-1 positive Escherichia coli” value ([4]; 16 μg/mL honokiol combined with 2 μg/mL polymyxin B) was ≤ 1 h. The “number of bacterial colonization in mouse thigh muscle” value (from here on “number of bacterial colonization”) [5, 9] was “significantly reduced”, the “number of bacterial colonization” value [5, 10] was “no significant effect” and the MIC ([6]; read-out: MIC alone) was > 512 µg/mL. For the same compound, the MIC ([6]; combined with polymyxin B, K. pneumoniae ZJ02, read-out: MIC co-application (honokiol/magnolol)) was 32 µg/mL, the “reduction of the MIC value of polymyxin” value [6] was 16 fold and the FIC [6, 11] was 0.125.

In the case of `C=CCc1ccc(O)c(-c2cc(CC=C)ccc2O)c1` [Magnolol, magnolol], the MIC [1] is reported as > 512 µg/mL, the “synergistic effect with polymyxin” value [1] is reported as “obvious synergistic effect” and the FIC [1, 7] is reported as 0.1875. The MIC [2] was > 512 µg/mL, the “synergistic effect with polymyxin” value [2] was “does not have any synergistic effect” and the FIC ([2]; E. coli BL21(DE3) (pET28a)) was 1.0625. For the same compound, the MIC ([3]; read-out: MIC alone) was > 512 µg/mL, the antibacterial effect alone ([3]; alone) was “no antibacterial effect” and the “reduction of the MIC value of polymyxin” value [3] was 4 fold. The FIC [3, 8] was 0.3125, the “time to completely kill MCR-1 positive Escherichia coli” value ([4]; 32 μg/mL magnolol combined with 2 μg/mL polymyxin B) was ≤ 3 h and the “number of bacterial colonization” value [5, 9] was “significantly reduced”. The “number of bacterial colonization” value [5, 10] was “no significant effect”, the MIC ([6]; read-out: MIC alone) was > 512 µg/mL and the “reduction of the MIC value of polymyxin” value [6] was 4 fold. For the same compound, the FIC [6, 11] was 0.3125.

With Polymyxin B [reference compound] the MIC alone ([1]; alone, E. coli BL21(DE3) (pET28a-mcr-1)) was 8 µg/mL, the “MIC Polymyxin B co-application” value ([1]; polymyxin B combined with honokiol, E. coli BL21(DE3) (pET28a-mcr-1)) was 0.5 µg/mL and the “MIC Polymyxin B co-application” value ([1]; polymyxin B combined with magnolol, E. coli BL21(DE3) (pET28a-mcr-1)) was 1 µg/mL. For the same compound, the MIC alone ([2]; alone, E. coli BL21(DE3) (pET28a)) was 1 µg/mL, the “MIC Polymyxin B co-application” value ([2]; polymyxin B combined with honokiol, E. coli BL21(DE3) (pET28a)) was 0.5 µg/mL and the “MIC Polymyxin B co-application” value ([2]; polymyxin B combined with magnolol, E. coli BL21(DE3) (pET28a)) was 1 µg/mL. The MIC alone ([3]; alone, E. coli DZ2-12R) was 8 µg/mL, the “MIC Polymyxin B co-application” value ([3]; polymyxin B combined with honokiol, E. coli DZ2-12R) was 1 µg/mL and the “MIC Polymyxin B co-application” value ([3]; polymyxin B combined with magnolol, E. coli DZ2-12R) was 2 µg/mL. For the same compound, the “number of bacterial colonization” value [5, 10] was “no significant effect”, the MIC alone ([6]; alone, K. pneumoniae ZJ02) was 32 µg/mL and the “MIC Polymyxin B co-application” value ([6]; polymyxin B combined with honokiol, K. pneumoniae ZJ02) was 2 µg/mL. For the same compound, the “MIC Polymyxin B co-application” value ([6]; polymyxin B combined with magnolol, K. pneumoniae ZJ02) was 8 µg/mL.
